Patent US20050159333A1, “Methods of modulating smooth muscle contractility” (priority 2002, published 2005)
“And” between values parts separate entries of the source, which are not always exact repeats. Equal values may be shown once. Where a name gives a salt, the structure may show the parent alone. Read-outs that look alike come from different tables or passages of the source.

Tests used:
[1] = system: isolated male rat urinary bladder; test: carbachol-evoked contractions of isolated male rat urinary bladder strips (organ bath); format: cell-based
[2] = molecular target: protein kinase C-related protein kinase 2 (PRK2) (Homo sapiens, UniProt Q16513); settings: Davies et al. 2000; cited from earlier work
Chain of protein kinase C-related protein kinase 2 (PRK2) (Q16513 whole entry, species assumed): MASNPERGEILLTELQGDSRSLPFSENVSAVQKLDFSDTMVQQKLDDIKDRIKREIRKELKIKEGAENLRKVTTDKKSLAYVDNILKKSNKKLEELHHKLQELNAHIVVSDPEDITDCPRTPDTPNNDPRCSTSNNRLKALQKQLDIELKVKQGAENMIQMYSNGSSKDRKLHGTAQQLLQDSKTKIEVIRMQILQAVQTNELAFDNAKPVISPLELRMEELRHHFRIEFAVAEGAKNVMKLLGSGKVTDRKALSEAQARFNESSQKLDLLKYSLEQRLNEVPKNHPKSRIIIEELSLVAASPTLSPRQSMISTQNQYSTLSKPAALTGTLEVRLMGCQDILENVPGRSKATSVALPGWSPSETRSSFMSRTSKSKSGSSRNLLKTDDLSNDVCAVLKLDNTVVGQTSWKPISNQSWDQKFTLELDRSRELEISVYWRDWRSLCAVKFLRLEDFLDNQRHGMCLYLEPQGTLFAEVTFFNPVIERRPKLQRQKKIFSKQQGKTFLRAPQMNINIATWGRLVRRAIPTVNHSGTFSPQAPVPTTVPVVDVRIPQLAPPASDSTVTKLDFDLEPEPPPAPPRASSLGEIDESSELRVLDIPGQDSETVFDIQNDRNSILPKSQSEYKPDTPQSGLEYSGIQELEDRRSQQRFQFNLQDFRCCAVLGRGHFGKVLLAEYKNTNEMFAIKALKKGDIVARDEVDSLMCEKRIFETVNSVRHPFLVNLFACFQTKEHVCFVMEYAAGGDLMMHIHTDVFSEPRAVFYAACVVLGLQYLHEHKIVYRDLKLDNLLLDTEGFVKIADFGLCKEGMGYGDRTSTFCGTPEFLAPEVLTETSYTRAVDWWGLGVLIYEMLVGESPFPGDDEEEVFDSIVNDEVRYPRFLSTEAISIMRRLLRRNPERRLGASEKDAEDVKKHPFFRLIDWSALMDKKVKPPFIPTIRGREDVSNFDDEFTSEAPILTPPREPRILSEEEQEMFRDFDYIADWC

[3] = molecular target: PKC, human form (Homo sapiens, UniProt P17252); settings: 20 μM HA-1077; Davies et al. 2000; cited from earlier work
[4] = system: isolated male rat urinary bladder; test: baseline bladder tension of isolated male rat urinary bladder strips; format: cell-based; settings: for decrease in baseline bladder tension from baseline / relaxation (decrease in baseline bladder tension): 10 μM, 45 min incubation; for effect on baseline bladder tension / bladder tone: absence of agonist-evoked contractile responses
[5] = system: isolated male rat urinary bladder; test: α,β-methylene ATP-evoked contractions of isolated male rat urinary bladder strips (organ bath); format: cell-based; settings: for attenuation of α,β-methylene ATP-evoked bladder contractions: 10 μM inhibitor, 45 min, 10 μM α,β-methylene ATP
[6] = molecular target: PKC from rat brain; settings: cited from earlier work
[7] = system: isolated rabbit aorta; settings: Seto et al. 1991; cited from earlier work
[8] = system: isolated rabbit urinary bladder smooth muscle; settings: Jezior et al. 2001, cited from earlier work
[9] = system: isolated male rat urinary bladder; test: contractile responses of isolated male rat urinary bladder to the PKC activator phorbol ester; format: cell-based
[10] = system: isolated male rat urinary bladder; test: NKA-evoked contractions of isolated male rat urinary bladder strips (organ bath); format: cell-based
[11] = system: isolated male rat urinary bladder; test: electrically-evoked contractions of isolated male rat urinary bladder strips (organ bath); format: cell-based
[12] = system: isolated rabbit pulmonary artery; settings: Fu et al. 1998; cited from earlier work
[13] = system: isolated male rat urinary bladder; test: KCl-evoked contractions of isolated male rat urinary bladder strips (organ bath); format: cell-based
[14] = molecular target: PRK1 (protein kinase N) (Homo sapiens, UniProt Q16512); settings: cited from earlier work
Chain of PRK1 (protein kinase N) (Q16512 whole entry, species assumed): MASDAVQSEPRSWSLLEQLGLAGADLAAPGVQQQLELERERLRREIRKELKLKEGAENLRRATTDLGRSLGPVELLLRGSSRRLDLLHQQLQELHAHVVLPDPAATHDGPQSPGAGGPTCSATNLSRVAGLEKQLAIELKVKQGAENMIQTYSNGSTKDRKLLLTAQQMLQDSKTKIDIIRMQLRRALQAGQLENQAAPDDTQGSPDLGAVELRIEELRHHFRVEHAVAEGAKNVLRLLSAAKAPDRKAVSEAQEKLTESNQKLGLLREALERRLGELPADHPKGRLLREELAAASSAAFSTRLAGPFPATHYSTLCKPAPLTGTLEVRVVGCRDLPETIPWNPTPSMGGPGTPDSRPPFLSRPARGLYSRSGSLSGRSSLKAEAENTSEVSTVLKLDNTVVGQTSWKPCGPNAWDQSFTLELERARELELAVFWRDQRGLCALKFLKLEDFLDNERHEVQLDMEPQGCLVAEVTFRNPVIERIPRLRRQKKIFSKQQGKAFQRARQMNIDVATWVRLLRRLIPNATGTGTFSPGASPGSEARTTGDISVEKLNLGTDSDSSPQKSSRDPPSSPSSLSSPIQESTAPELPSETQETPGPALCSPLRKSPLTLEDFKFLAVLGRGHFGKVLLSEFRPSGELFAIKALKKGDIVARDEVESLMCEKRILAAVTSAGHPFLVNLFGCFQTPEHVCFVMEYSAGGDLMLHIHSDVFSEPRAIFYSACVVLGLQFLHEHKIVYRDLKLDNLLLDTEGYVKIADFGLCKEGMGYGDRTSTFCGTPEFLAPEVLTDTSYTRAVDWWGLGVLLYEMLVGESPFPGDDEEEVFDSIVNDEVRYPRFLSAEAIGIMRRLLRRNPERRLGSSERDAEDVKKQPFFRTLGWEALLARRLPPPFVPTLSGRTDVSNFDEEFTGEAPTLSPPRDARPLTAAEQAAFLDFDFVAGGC

[15] = molecular target: ROCK II; settings: Ishizaki et al. 2000; cited from earlier work
[16] = system: other serine/threonine protein kinases; settings: Davies et al. 2000; cited from earlier work
[17] = Y-27632 10 μM, unpublished observations
[18] = vehicle experiments, at 3×10^−7 M NKA
[19] = all frequencies (2, 4, 8, 16 Hz), Y-27632 10 μM, atropine 1 μM, α,β-methylene ATP 10 μM
[20] = Rattus norvegicus, read-out: antagonist affinity (pKb) (converted)

SMILES: C[N+](C)(C)CCOC(N)=O.[Cl-] [carbachol, carbamylcholine chloride]
- EC50 ([1]; Rattus norvegicus, read-out: carbachol EC50 in the presence of Y-27632): 1.03 ± 0.336 µM
- Emax at 10 µM ([1]; Rattus norvegicus, vehicle experiments, at 10^−5 M carbachol, read-out: maximal response to carbachol as % of the response to 100 mM KCl): 105 ± 28.2%
- EC50 ([1]; Rattus norvegicus, vehicle experiments, read-out: carbachol EC50 in the absence of antagonist): 0.183 ± 0.0689 µM
- maximal response to carbachol ([1]; vehicle experiments, at 10^−5 M carbachol): 5.3 ± 0.9 g

SMILES: O=S(=O)(c1cccc2cnccc12)N1CCCNCC1 [HA-1077, fasudil]
- effect on PRK2 [2]: inhibited
- inhibitory effect on the human form of PKC [3]: no significant inhibitory effects
- decrease in baseline bladder tension from baseline [4]: 36.1±1.6%
- relaxation (decrease in baseline bladder tension) [4]: 0.30 ± 0.01 g
- effect on baseline bladder tension / bladder tone [4]: decreased bladder tone
- attenuation of α,β-methylene ATP-evoked bladder contractions [5]: 22.1±5.7% and 22±6%
- Ki [6]: 9.3 µM
- effect on PG-evoked contractions [7]: inhibits
- effect on bethanechol-evoked contractions [8]: attenuate
- effect on contractile responses to the PKC activator phorbol ester [9, 17]: no inhibitory effects

SMILES: CSCC[C@H](NC(=O)[C@H](CC(C)C)NC(=O)CNC(=O)[C@@H](NC(=O)[C@H](Cc1ccccc1)NC(=O)[C@H](CO)NC(=O)[C@H](CC(=O)O)NC(=O)[C@@H](NC(=O)[C@H](CCCCN)NC(=O)[C@@H](N)Cc1c[nH]cn1)[C@@H](C)O)C(C)C)C(N)=O [NKA, Neurokinin A]
- EC50 ([10]; read-out: NKA EC50 in the presence of Y-27632, 10 μM Y-27632): 0.0324 µM
- maximal response to NKA [10, 18]: 4.2 ± 0.4 g
- maximal response to NKA as % of the response to 100 mM KCl [10, 18]: 136.2±24.8%

SMILES: CN(C)CCCn1cc(C2=C(c3c[nH]c4ccccc34)C(=O)NC2=O)c2ccccc21 [GF109203X]
- effect on contractile responses to the PKC activator phorbol ester [9]: inhibited

SMILES: C[C@@H](N)[C@H]1CC[C@H](C(=O)Nc2ccncc2)CC1 [Y-27632, (+)-(R)-trans-4-(1-amino-ethyl)-N-(4-pyridyl) cyclohexanecarboxamide dihydrochloride monohydrate]
- effect on AUC of electrically-evoked bladder contractions [11, 19]: significantly attenuated
- effect on amplitude of electrically-evoked bladder contractions [11, 19]: significantly attenuated
- effect on PRK2 [2]: inhibited
- decrease in baseline bladder tension from baseline [4]: 47.0±2.5%
- relaxation (decrease in baseline bladder tension) [4]: 0.40 ± 0.05 g
- effect on baseline bladder tension / bladder tone [4]: decreased bladder tone
- attenuation of α,β-methylene ATP-evoked bladder contractions ([5]; dihydrochloride monohydrate): 30.0±7.2% and 30±7% and ~30%
- effect on AA-evoked contractile responses [12]: attenuated
- effect on contractile response to KCl ([13]; 10 μM Y-27632, KCl 10-100 mM, dihydrochloride monohydrate): no measureable effect
- effect on NKA-induced contractions ([10]; 10 μM Y-27632, all concentrations of agonist): significantly attenuated
- attenuation of NKA-evoked bladder contractions ([10]; 10 μM Y-27632, at 10^−6 M): 69±13%
- Kb [10, 20]: 2.51 µM
- inhibition at 10 µM ([10]; Rattus norvegicus, read-out: inhibition of NKA-induced contractions): 68.6 ± 12.7%
- Ki [14]: 3.1 µM
- effect on bethanechol-evoked contractions ([8]; dihydrochloride monohydrate): attenuates
- effect on contractile responses to the PKC activator phorbol ester [9, 17]: no effect
- inhibition of carbachol-evoked contractions ([1]; 10 μM Y-27632, 45 min pretreatment, at 3×10^−6 M carbachol, dihydrochloride monohydrate): 58±11%
- effect on carbachol-evoked contractions ([1]; 10 μM Y-27632, 10^−5-10^−4 carbachol): this inhibition was not significant
- effect on carbachol-evoked contractions ([1]; 10 μM Y-27632, 10^−9-3×10^−6 M carbachol): significantly attenuated
- inhibition at 10 µM ([1]; Rattus norvegicus, 10 μM Y-27632, 45 min pretreatment, at 3×10^−6 M carbachol): 58.1 ± 10.5%
- Kb [1, 20]: 2.14 µM
- degree of attenuation of G protein-coupled receptor contractile responses (carbachol and NKA) ([1]; Y-27632 10 μM, carbachol and NKA responses together): approximately 50%
- effect on carbachol-evoked contractions ([1]; pretreatment with 1 and 3 μM Y-27632): no effect
- Ki [15]: 0.3 µM
- effect on a large number of other serine/threonine protein kinases [16]: minimal effect

SMILES: [Cl-].[K+] [KCl, potassium chloride]
- maximal response to KCl [13]: 8.7 ± 0.5 g
- EC50 ([13]; read-out: KCl EC50 in the absence of antagonist): 31000 ± 4300 µM

SMILES: NC1=N[C@H](O)[C@H]2[C@H]3O[C@]4(O)O[C@@H]([C@@H](O)[C@@]2(N1)[C@@H]4O)[C@]3(O)CO [TTX, tetrodotoxin]
- effect on frequency-response curves to electrical stimulation [11]: abolished

SMILES: Nc1ncnc2c1ncn2[C@@H]1O[C@H](COP(=O)(O)CP(=O)(O)OP(=O)(O)O)[C@@H](O)[C@H]1O [α,β-methylene ATP]
- mean amplitude of contractile responses evoked by α,β-methylene ATP [5]: 3.9 ± 0.5 g
